Measurements from EP4775208A1, “USE OF PRMT5 INHIBITOR IN TREATMENT OF TUMORS OR CANCERS” (Apeiron Therapeutics (Hong Kong) Ltd., priority 2023, dated 2025).

Experiments:
[1] = system: HCT-116 MTAP wild-type cells; assay: Inhibition of proliferation of HCT-116 MTAP wild-type cells (Cell-Titer Glo); type: cell-based; conditions: Homo sapiens, HCT-116, 192 h, 8 days
Experimental: Test 2: Compound's inhibitory activity on proliferation of HCT-116 MTAP wild-type cells.
Materials and Cells: HCT-116 MTAP wild-type cells obtained from Kyinno Bio (China); RPMI-1640 medium, fetal bovine serum, and penicillin-streptomycin purchased from Thermo Fisher Scientific (America); 384-well plates from PerkinElmer (America); Cell-Titer Glo assay kit from Promega (America).
Cell Culture: HCT116 MTAP wild-type cells were cultured in RPMI 1640 medium containing 10% fetal bovine serum and 1% penicillin-streptomycin at 37°C, 5% CO2. Only cells in logarithmic growth phase were used for experiments.
(§1) Cell Proliferation Inhibition Assay: The compound's inhibitory activity on HCT-116 MTAP wild-type cells was assessed using the Cell-Titer Glo assay kit. Adjusting cell concentration, 40 µL was seeded into a 384-well plate and cultured overnight at 37°C, 5% CO2. Each well received 40 nL of the compound, achieving concentrations from 0 to 10,000 nM (starting concentration 10,000 nM, 3-fold dilution, 10 points), with 0.1% DMSO. The cell plate was incubated for 8 days at 37°C, 5% CO2. Cell-Titer Glo reagent (40 µL) was added to measure cell viability.

[2] = system: HCT-116 MTAP(-/-) deficient cells; assay: Inhibition of proliferation of HCT-116 MTAP(-/-) deficient cells (Cell-Titer Glo); type: cell-based; conditions: Homo sapiens, HCT-116, 192 h, 8 days
Experimental: Test 1: Compound's inhibitory activity on proliferation of HCT-116 MTAP(-/-) deficient cells.
Materials and Cells: HCT-116 MTAP(-/-) deficient cells obtained from Kyinno Bio (China); RPMI-1640 medium, fetal bovine serum, and penicillin-streptomycin purchased from Thermo Fisher Scientific (America); 384-well plates from PerkinElmer (America); Cell-Titer Glo assay kit from Promega (America).
Cell Culture: HCT116 MTAP(-/-) deficient cells were cultured in RPMI 1640 medium containing 10% fetal bovine serum and 1% penicillin-streptomycin at 37°C, 5% CO2. Only cells in logarithmic growth phase were used for experiments.
as §1, with “MTAP(-/-) deficient” for “MTAP wild-type”

Cc1ncc(-c2ccc3c(c2)C(C)OC[C@H]3N(C)C(=O)c2ccc3nc(N)c4cncn4c3c2)cn1 (stereo partly drawn) [Example 21, 4-amino-N-methyl-N-((4S)-1-methyl-7-(2-methylpyrimidin-5-yl)isochroman-4-yl)imid azo[1,5-a]quinoxaline-8-carboxamide]
IC50 [1]: 2130 nM
IC50 [2]: 14.8 nM

CN(C(=O)c1ccc2nc(N)c3cncn3c2c1)[C@@H]1CCc2cc(C(F)(F)F)ncc21 [Example 23, (R)-4-amino-N-methy 1-N-(3-(trifluoromethy 1)-6,7-dihydro-5H-cyclopenta[c]pyridin-7-yl)imidazo[1,5-a]quinox aline-8-carboxamide]
IC50 [1]: > 10000 nM
IC50 [2]: 120 nM

CN(C(=O)c1cc2c(cn1)nc(N)c1cncn12)[C@@H]1CCc2cc(C(F)(F)F)ncc21 [Example 24, (R)-4-amino-N-methy 1-N-(3-(trifluoromethy 1)-6,7-dihydro-5H-cyclopenta[c]pyridin-7-yl)imidazo[1,5-a]pyrido [3,4-e]pyrazine-8-carb oxamide]
IC50 [1]: > 10000 nM
IC50 [2]: 148 nM

CN(C(=O)c1ccc2nc(N)c3cncn3c2c1)[C@@H]1CCOc2cc(C(F)(F)F)ccc21 [Example 25, (R)-4-amino-N-methy 1-N-(7-(trifluoromethy 1)chroman-4-yl)imida zo[1,5-a]quinoxaline-8-carboxamide]
IC50 [1]: > 10000 nM
IC50 [2]: 177 nM

CN(C(=O)c1ccc2nc(N)c3cncn3c2c1)[C@@H]1COc2cc(C(F)(F)F)ncc21 [Example 26, (S)-4-amino-N-methy 1-N-(6-(trifluoromethy 1)-2,3-dihydrofuro[3,2-c]pyridin-3-yl)imidaz o[1,5-a]quinoxaline-8-carboxamide]
IC50 [1]: > 10000 nM
IC50 [2]: 67.7 nM

CN(C(=O)c1cc2c(cc1Cl)nc(N)c1cncn12)[C@@H]1COc2cc(C(F)(F)F)ccc21 [Example 27, (S)-4-amino-7-chloro-N-methyl-N-(6-(trifluoromethyl)-2,3-dihydrobenzofuran-3-yl)imi dazo[1,5-a]quinoxaline-8-carboxamide]
IC50 [1]: 842 nM
IC50 [2]: 4.4 nM

CN(C(=O)c1ccc2nc(N)c3cncn3c2c1)[C@@H]1COc2cc(S(C)(=O)=O)ccc21 [Example 28, (S)-4-amino-N-methy 1-N-(6-(methylsulfony 1)-2,3-dihydrobenzofuran-3-yl)imidazo[1,5-a]quinoxaline-8-carbo xamide]
IC50 [1]: > 10000 nM
IC50 [2]: 321 nM

CN(C(=O)c1ccc2nc(N)c3cncn3c2n1)[C@@H]1COc2cc(C(F)(F)F)ccc21 [Example 30, (S)-6-amino-N-methy 1-N-(6-(trifluoromethy 1)-2,3-dihydrobenzofuran-3-yl)imidazo[1,5-a]pyrido[3,2-e]pyrazine-2-carboxamide]
IC50 [1]: > 10000 nM
IC50 [2]: 2090 nM

CN(C(=O)c1cc2c(cn1)nc(N)c1cncn12)[C@@H]1COc2cc(C(F)(F)F)ncc21 [Example 31, (S)-4-amino-N-methy 1-N-(6-(trifluoromethy 1)-2,3-dihydrofuro[3,2-c]pyridin-3-yl)imidaz o[1,5-a]pyrido[3,4-e]p yrazine-8-carboxamide]
IC50 [1]: > 10000 nM
IC50 [2]: 297 nM

C[C@H]1OC[C@@H](N(C)C(=O)c2ccc3nc(N)c4cncn4c3c2)c2cnc(C(F)(F)F)cc21 [Example 32, 4-amino-N-methyl-N-((1R,4S)-1-methyl-7-(trifluoromethyl)-3,4-dihydro-1H-pyrano[4,3-c]pyridin-4-yl)imidazo[1,5-a]quinoxaline-8-carboxamide]
IC50 [1]: 1410 nM
IC50 [2]: 25.7 nM

Cc1cc(C(=O)N(C)[C@@H]2COc3cc(C(F)(F)F)ccc32)cc2c1nc(N)c1cncn12 [Example 37, (S)-4-amino-N,6-dime thyl-N-(6-(trifluoromethyl)-2,3-dihydrobenzofuran-3-yl)imidazo[1 ,5-a]quinoxaline-8-car boxamide]
IC50 [1]: > 10000 nM
IC50 [2]: > 3000 nM

CN(C(=O)c1ccc2nc(N)c3cc(F)cn3c2c1)[C@@H]1COc2cc(C(F)(F)F)ccc21 [Example 42, (S)-4-amino-2-fluoro-N-methyl-N-(6-(trifluoromethyl)-2,3-dihydrobenzofuran-3-yl)pyrr olo[1,2-a]quinoxaline-8-carboxamide]
IC50 [1]: 5460 nM
IC50 [2]: 660 nM

CN(C(=O)c1cc2c(cc1F)nc(N)c1cncn12)[C@@H]1COc2cc(-c3cscn3)ccc21 [Example 46, (S)-4-amino-7-fluoro-N-methyl-N-(6-(thiazol-4-yl)-2,3-dihydrobenzofuran-3-yl)imidaz o[1,5-a]quinoxaline-8-carboxamide]
IC50 [1]: > 10000 nM
IC50 [2]: 52.2 nM

CN(C(=O)c1ccc2nc(N)c3nncn3c2c1)[C@@H]1COc2cc(C(F)(F)F)ccc21 [Example 48, (S)-4-amino-N-methy 1-N-(6-(trifluoromethy 1)-2,3-dihydrobenzofuran-3-yl)-[1,2,4]triazo lo[4,3-a]quinoxaline-8-carboxamide]
IC50 [1]: > 3000 nM
IC50 [2]: > 3000 nM

CN(C(=O)c1ccc2nc(N)n3cncc3c2c1)[C@@H]1COc2cc(C(F)(F)F)ccc21 [Example 49, (S)-5-amino-N-methy 1-N-(6-(trifluoromethy 1)-2,3-dihydrobenzofuran-3-yl)imidazo[1,5-c]quinazoline-9-carbo xamide]
IC50 [1]: > 10000 nM
IC50 [2]: 589 nM

CC1OC[C@@H](N(C)C(=O)c2cc3c(cn2)nc(N)c2cncn23)c2ccc(C(F)(F)F)cc21 (stereo partly drawn) [Example 50, 4-amino-N-methyl-N-((4S)-1-methyl-7-(trifluoromethyl)isochroman-4-yl)imidazo[1,5-a]pyrido[3,4-e]pyrazine-8-carboxamide]
IC50 [1]: 196 nM
IC50 [2]: 4.2 nM

CN(C(=O)c1ccc2nc(N)c3cncn3c2c1)[C@H]1COc2cc(C(F)(F)F)ccc21 [Example 51, (R)-4-amino-N-methy 1-N-(6-(trifluoromethy 1)-2,3-dihydrobenzofuran-3-yl)imidazo[1,5-a]quinoxaline-8-carbo xamide]
IC50 [1]: 5860 nM
IC50 [2]: 213 nM

CN(C(=O)c1ccc2nc(N)c3cncn3c2c1)[C@@H]1COc2cc(CF)ccc21 [Example 52, (S)-4-amino-N-(6-(fluoromethyl)-2,3-dihydrobenzofuran-3-yl)-N-methylimidazo[1,5-a] quinoxaline-8-carbox amide]
IC50 [1]: > 10000 nM
IC50 [2]: 123 nM

CN(C(=O)c1ccc2nc(N)c3cncn3c2c1)[C@@H]1COc2cc(C(N)=O)ccc21 [Example 53, (S)4-amino-N-(6-carbamoyl-2,3-dihydrobenzofuran-3-yl)-N-met hylimidazo[1,5-a]quin oxaline-8-carboxamide]
IC50 [1]: > 10000 nM
IC50 [2]: > 3000 nM

CN(C(=O)c1ccc2nc(N)c3cncn3c2c1)[C@@H]1COc2cc(N)ccc21 [Example 54, (S)-4-amino-N-(6-amino-2,3-dihydrobenzof uran-3-yl)-N-methyli midazo[1,5-a]quinoxa line-8-carboxamide]
IC50 [1]: > 10000 nM
IC50 [2]: 2500 nM

CN(C(=O)c1cc2c(cc1F)nc(N)c1cncn12)[C@@H]1COc2cc(OC(F)(F)F)ccc21 [Example 57, (S)-4-amino-7-fluoro-N-methyl-N-(6-(trifluoromethoxy)-2,3-dihydrobenzofuran-3-yl)i midazo[1,5-a]quinoxa line-8-carboxamide]
IC50 [1]: 1870 nM
IC50 [2]: 10.5 nM

CN(C(=O)c1ccc2nc(N)c3nnnn3c2c1)[C@@H]1COc2cc(C(F)(F)F)ccc21 [Example 58, (S)-4-amino-N-methyl-N-(6-(trifluoromethyl)-2,3-dihydrobenzofuran-3-yl)tetrazolo[1,5-a]quinoxaline-8-carboxamide]
IC50 [1]: > 10000 nM
IC50 [2]: > 3000 nM

Nc1nc2cc(F)c(C(=O)N(C3CC3)C3CCOc4cc(-c5cncc(C(F)(F)F)c5)cnc43)cc2n2cncc12 (centres unmarked) [Example 59, 4-amino-N-cyclopropyl-7-fluoro-N-(7-(5-(trifluoromethyl)pyridin-3-yl)-3,4-dihydro-2H-pyrano[3,2-b]pyridin-4-yl)imidazo [1,5-a]quinoxaline-8-carboxamide]
IC50 [1]: > 10000 nM
IC50 [2]: 711 nM

CN(C(=O)c1cc2c(cc1F)nc(N)c1cncn12)[C@@H]1CCOc2cc(C(F)(F)F)ccc21 [Example 60, (R)-4-amino-7-fluoro-N-methyl-N-(7-(trifluoromethyl)chroman-4-yl)imidazo[1,5-a]qui noxaline-8-carboxamide]
IC50 [1]: 7070 nM
IC50 [2]: 66.8 nM

CC1OC[C@@H](N(C)C(=O)c2cc3c(cc2Cl)nc(N)c2cncn23)c2ccc(F)cc21 (stereo partly drawn) [Example 61, 4-amino-7-chloro-N-( (4S)-7-fluoro-1-methylisochroman-4-yl)-N-methylimidazo[1,5-a] quinoxaline-8-carbox amide]
IC50 [1]: 882 nM
IC50 [2]: 7.7 nM
